From patent publication US20030082101A1, “Accelerators for increasing the rate of formation of free radicals and reactive oxygen species” (Cavalier Discovery, priority 2001, published 2003) come the findings set out here.

Type in all cases: biochemical
The subject of assay [1] is ferritin. The assay can be described thus: Release of iron from ferritin assay, additives, ultrasound (Example 10). As to conditions: 0.2 mg/mL ferritin, pH 7, 15 min. Here is the method:
(§1) The following example uses the release of iron from ferritin assay to show the effect of additives on the release of iron from ferritin during ultrasound exposure. All solutions were prepared in pH 7 acetic acid solution containing approximately 0.2 mg/mL ferritin and 1 mM ferrozine, and the concentration of 1,4-quinone indicated in the table below. Solutions were sonicated at 30 W, 2 MHz, 32-34 degrees Celsius for fifteen minutes using a PZT-8 1.8 cm diameter custom transducer. The sonicated solution was placed on an orbit shaker rotating at 25 RPM to ensure even sonication of the solution while the transducer was held stationary. Control solutions were placed in a controlled temperature bath at 32-34 degrees Celsius without sonication. After 15 minutes of treatment, an aliquot was tested for the presence of the iron-ferrozine chelate via absorbance at 562 nm. The amount of iron released was determined using the control solution corrected absorbance (subtract the absorbance of the control solution from the absorbance of the ultrasound solution). The corrected absorbance was compared to a ferrozine-iron standard curve to determine the enhanced iron release due to ultrasound exposure. The enhanced iron release due to ultrasound exposure in the presence of the additive was compared to the amount of enhanced iron release due to ultrasound exposure in the absence of any additives as follows: [formula]

In assay [2] the test system is ferritin. The assay can be described thus: Release of iron from ferritin assay, naphthoquinones, ultrasound (Example 8). As to conditions: iron release vs ultrasound without additive, 0.2 mg/mL ferritin, pH 7, 15 min. Here is the method:
as §1, with “of naphthoquinones” for “of additives”, “of naphthoquinone” for “of 1,4-quinone”, “the amount of” for “the enhanced”, “iron released.” for “iron release due to ultrasound exposure.”, “the naphthoquinone” for “the additive”

The subject of assay [3] is deoxyribose. The assay can be described thus: TBARS assay, existing sonodynamic agents with a metal, ultrasound (Example 13). As to conditions: 0.025 mM ferrous iron, 0.025 mM ferric iron. Here is the method:
(§2) All solutions were prepared in pH 7.5 phosphate buffer containing approximately 2 mM deoxyribose, 0.01% hydrogen peroxide, 0.025 mM ferrous iron, 0.025 mM ferric iron, and the additives indicated in the table below. Solutions were sonicated at 30 W, 2 MHz, 32-34 degrees Celsius for ten minutes using a PZT-8 1.8 cm diameter custom transducer. The sonicated solution was placed on an orbit shaker rotating at 25 RPM to ensure even sonication of the solution while the transducer was held stationary. Control solutions were placed in a controlled temperature bath at 32-34 degrees Celsius without sonication. After 10 minutes of treatment, 1 mL test solution was placed in a test tube followed by 2 mL of 1% 2-thiobarbituric acid and 2 mL of 2.8% trichloroacetic acid. The test tube was sealed and heated to 90 degrees Celsius for 30 minutes and allowed to cool to room temperature for 20 minutes. The absorbance at 532 nm was measured. The enhanced radical production during ultrasound exposure was determined by comparing the amount of deoxyribose degradation that occurs in the sonicated solution versus the control solution using the following equation: [formula]

Assay [4] relates to ferritin. Nature of the assay: Release of iron from ferritin assay, anthraquinones, ultrasound (Example 9). The following applies: 0.2 mg/mL ferritin, pH 7.5, 15 min.
Protocol: All solutions are prepared in pH 7.5 phosphate buffer containing approximately 0.2 mg/mL ferritin and 1 mM ferrozine, and the concentration of anthraquinone indicated in the table below. Solutions are sonicated at 30 W, 2 MHz, 32-34 degrees Celsius for fifteen minutes using a PZT-8 1.8 cm diameter custom transducer. The sonicated solution is placed on an orbit shaker rotating at 25 RPM to ensure even sonication of the solution while the transducer is held stationary. Control solutions are placed in a controlled temperature bath at 32-34 degrees Celsius without sonication. After 15 minutes of treatment, an aliquot is tested for the presence of the iron-ferrozine chelate via absorbance at 562 nm. The amount of iron released is determined using the control solution corrected absorbance (subtract the absorbance of the control solution from the absorbance of the ultrasound solution). The corrected absorbance is compared to a ferrozine-iron standard curve to determine the amount of iron released.
Assay [5] can be described thus: Free radical production when exposed to ultrasound and a metal (statements in the description). The following applies: when exposed to ultrasound and a metal.
Assay [6] concerns deoxyribose. Nature of the assay: TBARS assay, metals that enhance radical production during ultrasound (Example 6). As to the method: as §2, with “The following example uses the thiobarbituric acid-reactive substances (TBARS) assay to identify metals that enhance radical production during ultrasound. All” for “All”, “peroxide,” for “peroxide, 0.025 mM ferrous iron, 0.025 mM ferric iron,”

The test system of assay [7] is deoxyribose. Nature of the assay: TBARS assay, additives with ferrous iron/EDTA, ultrasound (Example 11). As to conditions: 0.075 mM additive; 0.05 mM ferrous iron, 0.075 mM EDTA. As to the method:
as §2, with “The following example uses the thiobarbituric acid-reactive substances (TBARS) assay to identify metals that enhance radical production during ultrasound. All” for “All”, “are” for “were”, “0.05” for “0.025”, “iron added as FeSO4 hydrate, 0.075” for “iron, 0.025”, “EDTA,” for “ferric iron,”, “is” for “was”

The test system of assay [8] is deoxyribose. The assay can be described thus: TBARS assay, existing sonodynamic agents with a metal, ultrasound (Example 14). The following applies: 0.025 mM ferrous iron, 0.025 mM ferric iron. As to the method:
as §2, with “are” for “were”, “is” for “was”

Take `O=C1C=CC(=O)C=C1` [1,4 benzoquinone]: the “% Ultrasound Mediated Activity” value in the assay on ferritin [1] (concentration not given) is reported as 0%. For the molecule `CC(C)=CCC1=C(O)C(=O)c2ccccc2C1=O` [2-hydroxy-3-(3-methyl-2-butenyl)-1,4-naphthoquinone], the “% Ultrasound Mediated Activity” value in the assay with ferritin [2] (15 uM additive) amounted to 72%. Regarding `CC1=CC(=O)c2ccccc2C1=O` [2-methyl-1,4-naphthoquinone (menadione), 2-methyl-1,4-naphthoquinone], the “% Ultrasound Mediated Activity” value in the assay on ferritin [2] (18 uM additive) is 5.3%. For `O=C1C=CC(=O)c2c(O)ccc(O)c21` [5,8 dihydroxy-1,4-naphthoquinone], the “% Ultrasound Mediated Activity” value in the assay with ferritin [2] (106 uM additive) turned out to be 185%.

Turning to `O=C1C=CC(=O)c2c(O)cccc21` [5-hydroxy-1,4-naphthoquinone (juglone), 5-hydroxy-1,4-naphthoquinone], in the assay with ferritin [2] (10 uM additive), the “% Ultrasound Mediated Activity” value is given as 93%. In the case of `CC1=CC(=O)c2c(O)cccc2C1=O` [5-hydroxy-2-methyl-1,4-naphthoquinone], the “% Ultrasound Mediated Activity” value in the assay on ferritin [2] (71 uM additive) came out at 155%.

For `COc1cccc2c1C(=O)c1c(O)c3c(c(O)c1C2=O)C[C@@](O)(C(=O)CO)C[C@@H]3O[C@H]1C[C@H](N)[C@H](O)[C@H](C)O1` [Adriamycin], the “% Ultrasound Mediated Activity vs Control” value in the assay with deoxyribose [3] (0.029 mM additive) was 29%.

For the molecule `O=C1c2ccccc2C(=O)c2c1cc(S(=O)(=O)O)c(O)c2O` [Alizarin Red S, 3,4-dihydroxy-9,10-dioxo-2-anthracenesulfonic acid], in the assay with ferritin [4] (0.05 mM additive), the “% Ultrasound Mediated Activity” value is reported as more than 50%.

As to `O=C1c2ccccc2C(=O)c2cc(S(=O)(=O)O)ccc21` [Anthraquinone-2-sulfonic acid], the “% Ultrasound Mediated Activity” value in the assay with ferritin [4] (concentration not given) is less than 10%. With `N[C@@H](CS)C(=O)O` [CYSTEINE], in the assay with ferritin [1] (0.45 mM additive), the “% Ultrasound Mediated Activity” value is listed as 160%. In assay [5], the free radical production entry is reported as “increase free radical production”. As for `Cc1cc(O)c2c(c1)C(=O)c1cccc(O)c1C2=O` [Chrysophanol, 1,8-dihydroxy-3-methylanthraquinone], the “% Ultrasound Mediated Activity” value in the assay with ferritin [4] (0.05 mM additive) is more than 50%. For the molecule `[Cl][Cu][Cl]` [Cupric chloride], the “% Ultrasound Mediated Activity vs Control” value in the assay on deoxyribose [6] (cupric chloride 0.026 mM) turned out to be 82%. `O=C(O)/C(O)=C(\O)C(=O)O` [DIHYDROXYFUMARATE]: the “% Ultrasound Mediated Activity” value in the assay on ferritin [1] (0.01 mM additive) is 72%.

`Cc1cc(O)c2c(c1)C(=O)c1cc(O)cc(O)c1C2=O` [Emodin, 6-methyl-1,3,8-trihydroxyanthraquinone]: the “% Ultrasound Mediated Activity” value with ferritin [4] (0.05 mM additive) is listed as more than 50%. Consider `[Cl][Fe]([Cl])[Cl]` [Ferric iron added as FeCl3, FeCl3], for which the “% Ultrasound Mediated Activity vs Control” value in the assay with deoxyribose [6] (ferric iron approx 0.1 mM) is reported as 76%. With `O=S(=O)([O-])[O-].O=S(=O)([O-])[O-].[Fe+2].[NH4+].[NH4+]` [Ferrous iron added as Fe(NH4)2(SO4)2, Fe(NH4)2(SO4)2], the “% Ultrasound Mediated Activity vs Control” value with deoxyribose [6] (ferrous iron 0.1 mM) came out at 12%. As to `O=c1c(O)c(-c2cc(O)c(O)c(O)c2)oc2cc(O)cc(O)c12` [Myricetin], in the assay on deoxyribose [7], the “% Ultrasound Mediated Activity vs Control” value is given as more than 100%.

In the case of `CC(C)(S)[C@@H](N)C(=O)O` [PENICILLAMINE], the “% Ultrasound Mediated Activity” value with ferritin [1] (0.11 mM additive) amounted to 117%. In addition, the free radical production entry in assay [5] is listed as “increase free radical production”. For the molecule `O=c1c(O)c(-c2ccc(O)c(O)c2)oc2cc(O)cc(O)c12` [Quercetin], in the assay on deoxyribose [7], the “% Ultrasound Mediated Activity vs Control” value is more than 100%.

As to `O=C(O)c1cc(O)c2c(c1)C(=O)c1cccc(O)c1C2=O` [Rhein, 9,10-dihydro-4,5-dihydroxy-9,10-dioxo-2-anthracenecarboxylic acid], the “% Ultrasound Mediated Activity” value in the assay on ferritin [4] (0.05 mM additive) was more than 50%. Consider `O=C([O-])c1c(Cl)c(Cl)c(Cl)c(Cl)c1-c1c2cc(I)c(=O)c(I)c-2oc2c(I)c([O-])c(I)cc12.[Na+].[Na+]` [Rose Bengal], for which, in the assay on deoxyribose [3] (0.028 mM additive), the “% Ultrasound Mediated Activity vs Control” value came to 28%. With `O=C1C(O)=C(O)C(=O)C(O)=C1O` [Tetrahydroxy 1,4-benzoquinone], the “% Ultrasound Mediated Activity” value with ferritin [1] (0.11 mM additive) is 186%. Consider Ferritin, for which the “% Ultrasound Mediated Activity vs Control” value in the assay on deoxyribose [6] (ferritin approx. 0.2 mg/mL) was 6%. As to Hypocrellin A, in the assay on deoxyribose [8] (0.025 mM additive), the “% Ultrasound Mediated Activity vs Control” value is listed as more than 30%.

Take “Iron(III) phthalocyanine-4,4′,4″,4″′-tetrasulfonic acid”: the “% Ultrasound Mediated Activity vs Control” value in the assay on deoxyribose [8] (0.025 uM additive) was more than 30%.
